# Laboratory results published in ChEMBL document CHEMBL5150067 (J Med Chem, 2022).
# How the values were obtained:
# [1] = Inhibition of Hedgehog-signalling dependent purmorphamine induced osteoblast differentiation in mouse C3H 10T1/2 cells assessed as reduction in ALP expression incubated for 96 hrs by CDP-Star luminogenic substrate based assay; type: functional, cell-based; settings: C3H 10T1/2, 96 h
# [2] = Inhibition of Hedgehog-signalling dependent purmorphamine induced osteoblast differentiation in mouse C3H 10T1/2 cells assessed as residual activity by measuring ALP expression at 10 uM incubated for 96 hrs by CDP-Star luminogenic substrate based assay relative to control; type: functional
# [3] = target: T1, Aryl hydrocarbon receptor (Mus musculus, UniProt P30561); assay: Activation of AhR in purmorphamine-treated mouse C3H 10T1/2 cells assessed as translocation of AhR from cytoplasm to nucleus at 1 nM incubated for 24 hrs by immunostaining based analysis; type: cell-based; settings: c3h 10t1/2, 24 h, 0.001 µM
# T1 sequence (P30561 whole entry): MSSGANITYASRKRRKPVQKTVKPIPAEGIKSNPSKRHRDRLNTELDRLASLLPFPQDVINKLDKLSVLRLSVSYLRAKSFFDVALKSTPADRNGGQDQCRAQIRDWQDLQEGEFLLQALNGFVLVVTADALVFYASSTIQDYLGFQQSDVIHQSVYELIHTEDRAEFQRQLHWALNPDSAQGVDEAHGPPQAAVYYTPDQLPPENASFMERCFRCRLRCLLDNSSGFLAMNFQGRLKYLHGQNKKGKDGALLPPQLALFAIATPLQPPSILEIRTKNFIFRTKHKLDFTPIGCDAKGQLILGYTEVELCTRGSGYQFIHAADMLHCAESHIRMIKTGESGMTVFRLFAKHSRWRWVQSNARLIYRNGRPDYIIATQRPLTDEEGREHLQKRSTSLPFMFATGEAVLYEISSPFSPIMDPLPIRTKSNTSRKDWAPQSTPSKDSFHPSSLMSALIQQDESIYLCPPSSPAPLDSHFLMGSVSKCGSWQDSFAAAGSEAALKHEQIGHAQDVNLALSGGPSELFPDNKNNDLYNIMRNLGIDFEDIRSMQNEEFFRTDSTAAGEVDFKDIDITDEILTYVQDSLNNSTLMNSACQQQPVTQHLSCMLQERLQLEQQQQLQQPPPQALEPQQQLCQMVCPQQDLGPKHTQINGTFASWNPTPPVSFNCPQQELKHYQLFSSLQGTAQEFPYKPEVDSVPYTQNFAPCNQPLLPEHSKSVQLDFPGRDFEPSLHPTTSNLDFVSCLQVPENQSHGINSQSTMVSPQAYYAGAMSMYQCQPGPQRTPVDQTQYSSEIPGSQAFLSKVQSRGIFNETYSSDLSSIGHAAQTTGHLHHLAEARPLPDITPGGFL
# [4] = target: T1, Aryl hydrocarbon receptor; assay: Activation of AhR in purmorphamine-treated mouse C3H 10T1/2 cells assessed as upregulation of Cyp1B1 mRNA levels measured after 96 hrs by RT-qPCR analysis; type: cell-based; settings: c3h 10t1/2, 96 h, DDE = dose-dependent effect, dose 0.001-1 nM
IC50 [1] [nM],Compound,Activity [2] [%],further results
4.2,O=C1c2ccc(Br)cc2C[C@H]2c3ccccc3CCN12,44.2,
,O=C1c2ccc(Cl)c(F)c2C[C@H]2c3ccccc3CCN12,67.2,
,Cc1ccc2c(c1)C[C@H]1c3ccccc3CCN1C2=O,93.2,
,COc1ccc2c(c1)C[C@H]1c3ccccc3CCN1C2=O,114,
,O=C1c2cc(Cl)cc(Cl)c2C[C@H]2c3ccccc3CCN12,53.2,
1.2,O=C1c2ccc(Cl)cc2C[C@H]2c3ccccc3CCN12,30.4,
,O=C1c2ccc(I)cc2C[C@H]2c3ccccc3CCN12,57.8,
,CC(C)c1ccc2c(c1)C[C@H]1c3ccccc3CCN1C2=O,90.1,
0.7,O=C1c2ccc(C(F)(F)F)cc2C[C@H]2c3ccccc3CCN12,33.1,
1.1,O=C1c2ccc(Cl)c(Cl)c2C[C@H]2c3ccccc3CCN12,36,
0.004,O=C1c2cc(I)c(Cl)cc2C[C@H]2c3ccccc3CCN12,30.7,
,O=C1c2ccc(F)cc2C[C@H]2c3ccccc3CCN12,61.2,
,O=C1c2ccccc2C[C@H]2c3ccccc3CCN12,100,
,O=C1c2cc(Br)c(Cl)cc2C[C@H]2c3ccccc3CCN12,,Activity [3]: Active; Activity [4]: Dde
,O=C1c2ccccc2C[C@H]2c3ccccc3CCCN12,134,
,COc1cc2c(cc1OC)C(=O)N1CCc3cc(OC)c(OC)cc3[C@@H]1C2,55.2,
,O=C1c2cccc(Cl)c2C[C@H]2c3ccccc3CCN12,53,
,COc1cc2c(cc1F)CCN1C(=O)c3ccccc3C[C@@H]21,127,
850,O=C1c2ccc(Cl)cc2C[C@@H]2c3ccccc3CCN12,27.4,
,COc1cc2c(cc1OC)[C@@H]1Cc3ccccc3C(=O)N1CC2,96.5,
0.36,O=C1c2cc(Br)c(Cl)c(Br)c2C[C@H]2c3ccccc3CCN12,27.9,
0.038,COc1cc2c(cc1Cl)C[C@H]1c3ccccc3CCN1C2=O,13.4,
,O=C1c2ccccc2C[C@H]2c3ccccc3CN12,29.2,
,O=C1c2ccccc2C[C@H]2c3ccc(Cl)cc3CCN12,87,
